# Measurements published in patent US8735443B2, “Method of treating diabetes-related vascular complications” (Kuwait University, priority 2008, dated 2014).
# Key:
# aortic vessels = experiment: Dihydroethidium / ethidium bromide fluorescence of aortic sections; type: in vivo, rat; details: LA-treated diabetic rats
# Protocol: Dihydroethidium (DHE), an oxidative fluorescent dye, was used to localize superoxide production in situ. DHE is oxidized on reaction with superoxide to ethidium bromide, which binds to DNA in the nucleus and fluoresces. Arteries were embedded in OCT medium, frozen and cryosectioned. Vascular sections were incubated with DHE at a concentration (10^−6 mol/l) at 37° C. for 30 minutes. DHE images from serial sections were obtained using a Zeiss Axioplan 2000 fluorescence microscope.
# [1] = system: thiobarbituric acid reactive substances; experiment: Aortic content of TBARS (lipid peroxidation); type: in vivo, rat; details: aorta of LA-treated GK rats
# Protocol: With regard to lipid peroxidation, aortic tissues were homogenized in ice-cold tris-hydrochloric acid/buffer (pH 7.4) and butylated hydroxytoluene (BHT). Homogenates were centrifuged at 3,000×g at 4° C. for 10 min. An aliquot of the supernatant was combined with N-methyl-2-phenylindol (10.3) mmol/l in acetonitrile and methanol in the presence of methane sulfonic acid and BHT and the amount of malondialdehyde and 4-hydroxy-2-nonenal was assessed.
# TNF-α [2] = experiment: Plasma TNF-α ELISA; type: in vivo, rat; details: GK rats, LA chronic therapy
# Protocol: Plasma TNF-α levels from various experimental groups were determined using a rat TNF-α ELISA kit, and tissue protein content was determined using bovine serum albumin as a standard.
# TNF-α [3] = experiment: Aortic mRNA expression by QRT-PCR, TNF-α; type: in vivo, rat; details: GK rats, LA chronic therapy
# Protocol: Further, with regard to quantitative real-time polymerase chain reactions (PCR) in the study, total RNA from the arterial samples was isolated using TRIZOL® reagent, and RNA integrity was verified by agarose gel electrophoresis and quantified by spectrophotometry. Reverse transcription reaction of total RNA (5 μg) was performed using a superscript 111 first-strand synthesis system. Quantitative real-time PCR was performed using fast SYBR Green QPCR. […]
# The housekeeping gene beta-actin was used for internal normalization. Fidelity of the PCR reaction was determined by melting temperature analysis. PCR efficiency for each primer pair was determined by quantitating amplification with increasing concentration of template cDNA. […] RNA expression of target genes was calculated based on the real-time PCR efficiency E and the threshold crossing point (CP) and is expressed relative to the reference gene beta-actin.
# IL-6 = experiment: Aortic mRNA expression by QRT-PCR, IL-6; type: in vivo, rat; details: GK rats, LA therapy
# Protocol: An expression of a number of inflammatory markers, including IL-6 and ICAM-1, were measured in control, diabetic and LA-treated diabetic vessels. The results confirmed marked elevation in the vascular expression of both […] and ICAM-1 during diabetes, as shown in FIGS. 11A and 11B. […] Aortic expression of IL-6 is shown in FIG. 11A and aortic expression of intracellular adhesion molecule (ICAM-1) is shown in FIG. 11B. Both were determined using QRT-PCR based techniques.
# diabetic fibroblasts = experiment: Inflammatory cytokine transcription in fibroblasts, RT-PCR; type: cell-based, rat; details: lipoic acid 500 μM, Nrf2-dependent
# From the text: To determine the effect of α-lipoic acid on isolated cells from normal and diabetic rats, primary rat fibroblasts were derived from dorsal skin biopsies performed on four diabetic Coto Kakizaki rats (DFs) and four age-matched (12-14 months) and sex-matched (female) Wistar control rats (CFs). After sterilization in povidine solution, the rat skin was washed in sterile water and rinsed in 70% ethanol in phosphate-buffered saline (PBS). The epidermis and dermis were separated following overnight incubation in 0.25% Trypsin/EDTA at 4° C. Samples were washed, diced and digested for thirty minutes at 37° C. in collagenase type I (250 U/ml) dissolved in Dulbecco's modified Eagle medium (DMEM; Invitrogen) containing penicillin (100 U/ml), 2 mM L-glutamine and 26 mM HEPES. After collagenase treatment, the cells were dislodged, centrifuged and resuspended in medium supplemented with 10% fetal bovine serum. […]
# With regard to cytokine transcription levels, Total RNA was isolated from cultured fibroblasts using Trizol reagent (Invitrogen) and 1 μg from each sample was reverse transcribed for 1 hr at 37° C. using the High Capacity cDNA Reverse Transcription Kit. Real-time quantitative RT-PCR was performed with the TaqMan Gene Expression Assay and was normalized against […] using an ABI 7900 Real-time PCR System (Applied Biosystems). […]
# protein-bound carbonyls = experiment: Aortic content of protein-bound carbonyls; details: aorta of LA-treated GK rats
structure (smiles),measurement,setting,value
"O=C(O)CCCCC1CCSS1 (stereo not drawn) [LA, alpha-lipoic acid]",nuclear EB fluorescence in aortic vessels,aortic vessels,significantly reduced
same,oxidative stress-mediated damage to lipid (TBARS),[1],partially reversed
same,diabetes related up-regulation of TNF-α protein (plasma),TNF-α [2],Reversal
same,diabetes related up-regulation of TNF-α mRNA (aorta),TNF-α [3],Reversal
same,"diabetic vascular proinflammatory phenotype, aortic expression of IL-6",IL-6,partially reversed
same,transcription of inflammatory cytokines in diabetic fibroblasts,diabetic fibroblasts,decreases
same,oxidative stress-mediated damage to protein (protein-bound carbonyls),protein-bound carbonyls,partially reversed
